Converted amounts (≈) assume the structure as drawn.
Columns and labels:
Streptococcus pneumoniae [1] = test: Antibacterial activity against beta-lactams, macrolide and fluoroquinolone resistant Streptococcus pneumoniae 718 assessed as inhibition of bacterial growth incubated for 18 hrs by CLSI based serial agar dilution method; format: functional
Staphylococcus aureus [2] = test: Antibacterial activity against methicillin resistant Staphylococcus aureus 5076 harbouring DNA gyrase and topoisomerase IV mutant and efflux pump assessed as inhibition of bacterial growth incubated for 18 hrs in presence of efflux inhibitor by CLSI based serial agar dilution method; format: functional
Streptococcus pneumoniae [3] = test: Antibacterial activity against beta-lactams, macrolide and fluoroquinolone resistant Streptococcus pneumoniae 718 infected in po dosed Swiss mouse septicemia model assessed as protective dose administered on 1 and 5 hrs post infection and measured on day 7; format: functional, organism-based
Staphylococcus aureus [4] = test: Antibacterial activity against methicillin resistant Staphylococcus aureus assessed as inhibition of bacterial growth incubated for 18 hrs by CLSI based serial agar dilution method; format: functional
Staphylococcus aureus [5] = test: Antibacterial activity against Staphylococcus aureus […] assessed as inhibition of bacterial growth incubated for 18 hrs by CLSI based serial agar dilution method; format: functional
Staphylococcus aureus [6] = test: Antibacterial activity against methicillin resistant Staphylococcus aureus 032 assessed as inhibition of bacterial growth incubated for 18 hrs by CLSI based serial agar dilution method; format: functional
Streptococcus pneumoniae [7] = test: Antibacterial activity against fluoroquinolone efflux positive Streptococcus pneumoniae 706 assessed as inhibition of bacterial growth incubated for 18 hrs by CLSI based serial agar dilution method; format: functional
Streptococcus pneumoniae [8] = test: Antibacterial activity against Streptococcus pneumoniae assessed as inhibition of bacterial growth incubated for 18 hrs by CLSI based serial agar dilution method; format: functional
Streptococcus pneumoniae [9] = test: Antibacterial activity against Streptococcus pneumoniae 5844 harbouring moxifloxacin resistant DNA gyrase and topoisomerase IV mutant assessed as inhibition of bacterial growth incubated for 18 hrs by CLSI based serial agar dilution method; format: functional; settings: Streptococcus pneumoniae, 5844, 18 h
Staphylococcus aureus [10] = test: Antibacterial activity against methicillin resistant Staphylococcus aureus 5076 assessed as inhibition of bacterial growth incubated for 18 hrs by CLSI based serial agar dilution method; format: functional
[11] = Mutagenicity in Swiss mouse assessed as chromosomal aberration in bone marrow cells at 400 mg/kg, po measured after 24 hrs relative to control; format: toxicity, organism-based; settings: in vivo
[12] = Induction of drug resistance in methicillin resistant Staphylococcus aureus assessed as increase in MIC measured after 10 passages (reference value: 0.4 ug/ml); format: functional
[13] = Streptococcus pneumoniae, 718, 18 h, read-out: MIC
[14] = Staphylococcus aureus, read-out: MIC
[15] = Staphylococcus aureus, 032, 18 h, read-out: MIC
[16] = Streptococcus pneumoniae, 18 h, read-out: MIC

In the case of `COc1c(N2CC[C@H](N)C(C)(C)C2)c(F)cc2c(=O)c(C(=O)O)cn(C3CC3)c12`, the MIC (Streptococcus pneumoniae [1]; [13]) is reported as 0.8 µg/mL (≈ 1.98 µM), the MIC (Staphylococcus aureus [2]) is reported as 1.56 µg/mL and the EC50 (Streptococcus pneumoniae [3]) is reported as 50 mg/kg. For the same compound, the MIC (Staphylococcus aureus [4]; [14]) was 0.05 µg/mL (≈ 0.124 µM), the MIC (Staphylococcus aureus [5]) was 0.05 µg/mL (≈ 0.124 µM) and the MIC (Staphylococcus aureus [6]; [15]) was 0.8 µg/mL (≈ 1.98 µM).
`CONC1CCN(c2c(F)cc3c(=O)c(C(=O)O)cn(C4CC4)c3c2OC)CC1(C)C` (configuration not stated) gave an MIC (Streptococcus pneumoniae [7]) of 0.8 µg/mL (≈ 1.85 µM), an MIC (Streptococcus pneumoniae [8]; [16]) of 0.8 µg/mL (≈ 1.85 µM) and an MIC (Staphylococcus aureus [4]; [14]) of 0.1 µg/mL (≈ 0.231 µM). The MIC (Streptococcus pneumoniae [9]) was greater than 6.25 µg/mL.
`CCC1CN(c2c(F)cc3c(=O)c(C(=O)O)cn(C4CC4)c3c2OC)CCC1NC` (configuration not stated) gave an MIC (Streptococcus pneumoniae [8]; [16]) of 1.56 µg/mL (≈ 3.74 µM) and an MIC (Staphylococcus aureus [4]; [14]) of 0.2 µg/mL (≈ 0.479 µM).
Compound `CC1(C)CN(c2cc3c(cc2F)c(=O)c(C(=O)O)cn3C2CC2)CCC1N` (configuration not stated) has an MIC (Streptococcus pneumoniae [8]; [16]) of 0.8 µg/mL (≈ 2.14 µM) and an MIC (Staphylococcus aureus [4]; [14]) of 12.5 µg/mL (≈ 33.5 µM).
In the case of `COc1c(N2CCC(N(C)C)C(C)(C)C2)c(F)cc2c(=O)c(C(=O)O)cn(C3CC3)c12` (configuration not stated), the MIC (Streptococcus pneumoniae [8]; [16]) is reported as 0.4 µg/mL (≈ 0.927 µM) and the MIC (Staphylococcus aureus [4]; [14]) is reported as 0.2 µg/mL (≈ 0.463 µM).
With `COc1c(N2CCC(N)C(C)C2)c(F)cc2c(=O)c(C(=O)O)cn(C3CC3)c12` (configuration not stated) the MIC (Streptococcus pneumoniae [8]; [16]) was 0.2 µg/mL (≈ 0.514 µM) and the MIC (Staphylococcus aureus [4]; [14]) was 0.05 µg/mL (≈ 0.128 µM).
`CCNC1CCN(c2c(F)cc3c(=O)c(C(=O)O)cn(C4CC4)c3c2OC)CC1(C)C` (configuration not stated) showed an MIC (Streptococcus pneumoniae [7]) of 1.56 µg/mL (≈ 3.62 µM), an MIC (Streptococcus pneumoniae [8]; [16]) of 1.56 µg/mL (≈ 3.62 µM) and an MIC (Staphylococcus aureus [4]; [14]) of 0.2 µg/mL (≈ 0.463 µM).
`COc1c(N2CC(C)C(N)C(C)C2)c(F)cc2c(=O)c(C(=O)O)cn(C3CC3)c12` (cis isomer) gave an MIC (Staphylococcus aureus [4]) of 0.1 µg/mL (≈ 0.248 µM).
In the case of `Cc1c(N2CCC(N)C(C)C2)c(F)cc2c(=O)c(C(=O)O)cn(C3CC3)c12.Cl` (cis isomer), the EC50 (Streptococcus pneumoniae [3]) is reported as 30 mg/kg.
Work on `Cc1c(N2CCC(N)C(C)(C)C2)c(F)cc2c(=O)c(C(=O)O)cn(C3CC3)c12` (racemic) yielded an MIC (Streptococcus pneumoniae [1]; 18 h) of 1.56 µg/mL (≈ 4.03 µM) and an MIC (Staphylococcus aureus [6]; 18 h) of 1.56 µg/mL (≈ 4.03 µM).
Compound `Cc1c(N2CCC(N)C(C)(C)C2)c(F)cc2c(=O)c(C(=O)O)cn(C3CC3)c12.Cl` (racemic) has an EC50 (Streptococcus pneumoniae [3]) of 30 mg/kg.
Compound `Cc1c(N2CCC(O)C(C)(C)C2)c(F)cc2c(=O)c(C(=O)O)cn(C3CC3)c12.Cl` (racemic) has an MIC (Streptococcus pneumoniae [1]; [13]) of 0.8 µg/mL and an MIC (Staphylococcus aureus [6]; [15]) of 0.8 µg/mL.
With `Cc1c(N2CCC(O)C(C)(C)C2)c(F)cc2c(=O)c(C(=O)O)cn(C3CC3)c12` (single isomer, unassigned; (+)) the MIC (Streptococcus pneumoniae [1]; [13]) was 0.2 µg/mL (≈ 0.515 µM), the MIC (Staphylococcus aureus [2]) was 0.2 µg/mL and the MIC (Staphylococcus aureus [10]) was 0.2 µg/mL (≈ 0.515 µM). The MIC (Staphylococcus aureus [5]) was 0.003 µg/mL (≈ 0.00772 µM) and the MIC (Staphylococcus aureus [6]; [15]) was 0.2 µg/mL (≈ 0.515 µM).
For `Cc1c(N2CCC(N)C(C)(C)C2)c(F)cc2c(=O)c(C(=O)O)cn(C3CC3)c12` (single isomer, unassigned; (-)), the MIC (Streptococcus pneumoniae [1]; 18 h) was 0.4 µg/mL (≈ 1.03 µM), the MIC (Staphylococcus aureus [2]) was 0.8 µg/mL and the EC50 (Streptococcus pneumoniae [3]) was 20 mg/kg. For the same compound, the MIC (Staphylococcus aureus [10]) was 0.8 µg/mL (≈ 2.06 µM) and the MIC (Staphylococcus aureus [6]; 18 h) was 0.4 µg/mL (≈ 1.03 µM).
For `COc1c(N2CCC(N)C(C)(C)C2)c(F)cc2c(=O)c(C(=O)O)cn(C3CC3)c12` (single isomer, unassigned; (-)), the Activity [11] was 3.8%.
`COc1c(N2CC(C)C(N)C(C)C2)c(F)cc2c(=O)c(C(=O)O)cn(C3CC3)c12` (stereo in doubt) gave an MIC (Streptococcus pneumoniae [8]; [16]) of 0.1 µg/mL (≈ 0.248 µM) and an MIC (Staphylococcus aureus [4]; [14]) of 0.1 µg/mL (≈ 0.248 µM).
With `CCNC1C(C)CN(c2c(F)cc3c(=O)c(C(=O)O)cn(C4CC4)c3c2OC)CC1C` (stereo in doubt) the MIC (Streptococcus pneumoniae [8]) was 1.56 µg/mL (≈ 3.62 µM) and the MIC (Staphylococcus aureus [4]) was 0.2 µg/mL (≈ 0.463 µM).
For `Cc1c(N2CCC(O)C(C)C2)c(F)cc2c(=O)c(C(=O)O)cn(C3CC3)c12` (stereo in doubt; form 1), the MIC (Streptococcus pneumoniae [1]; [13]) was 0.2 µg/mL (≈ 0.534 µM) and the MIC (Staphylococcus aureus [6]; [15]) was 0.2 µg/mL (≈ 0.534 µM).
With `COc1c(N2CCC(N)C(C)(C)C2)c(F)cc2c(=O)c(C(=O)O)cn(C3CC3)c12` (stereo in doubt; form 1) the MIC (Staphylococcus aureus [2]) was 1.56 µg/mL, the EC50 (Streptococcus pneumoniae [3]) was 30 mg/kg and the MIC (Staphylococcus aureus [4]; [14]) was 0.05 µg/mL (≈ 0.124 µM). The Activity [11] was 5.83% and the MIC (Staphylococcus aureus [6]; [15]) was 0.6 µg/mL (≈ 1.49 µM).
With `Cc1c(N2CCC(O)C(C)C2)c(F)cc2c(=O)c(C(=O)O)cn(C3CC3)c12` (stereo in doubt; form 2) the MIC (Streptococcus pneumoniae [1]) was 0.2 µg/mL (≈ 0.534 µM) and the MIC (Staphylococcus aureus [6]) was 0.2 µg/mL (≈ 0.534 µM).
In the case of `COc1c(N2CCC(N)C(C)(C)C2)c(F)cc2c(=O)c(C(=O)O)cn(C3CC3)c12` (stereo in doubt; form 2), the Activity [11] is reported as 12%.
`COc1c(N2CC(C)C(N)C(C)C2)c(F)cc2c(=O)c(C(=O)O)cn(C3CC3)c12` (trans isomer) showed an MIC (Streptococcus pneumoniae [8]; 18 h) of 0.2 µg/mL (≈ 0.496 µM) and an MIC (Staphylococcus aureus [4]) of 0.05 µg/mL (≈ 0.124 µM).
`CCNC1C(C)CN(c2c(F)cc3c(=O)c(C(=O)O)cn(C4CC4)c3c2OC)CC1C` (trans isomer) showed an MIC (Streptococcus pneumoniae [8]; [16]) of 1.56 µg/mL (≈ 3.62 µM) and an MIC (Staphylococcus aureus [4]) of 0.012 µg/mL (≈ 0.0278 µM).
In the case of `Cc1c(N2CCC(N)C(C)C2)c(F)cc2c(=O)c(C(=O)O)cn(C3CC3)c12` (trans isomer), the MIC (Staphylococcus aureus [6]; [15]) is reported as 0.8 µg/mL (≈ 2.14 µM).
With `COc1c(N2CCNC(C)C2)c(F)cc2c(=O)c(C(=O)O)cn(C3CC3)c12` (configuration not stated) [GATIFLOXACIN] the EC50 (Streptococcus pneumoniae [3]) was greater than 100 mg/kg.
`C[C@H]1COc2c(N3CCN(C)CC3)c(F)cc3c(=O)c(C(=O)O)cn1c23.C[C@H]1COc2c(N3CCN(C)CC3)c(F)cc3c(=O)c(C(=O)O)cn1c23.O` [LEVOFLOXACIN] gave an EC50 (Streptococcus pneumoniae [3]) greater than 100 mg/kg and an MIC (Staphylococcus aureus [6]; [15]) of 6.25 µg/mL.
With `C[C@H]1CCc2c(N3CCC(O)CC3)c(F)cc3c(=O)c(C(=O)O)cn1c23` [LEVONADIFLOXACIN] the MIC (Streptococcus pneumoniae [8]; [16]) was 0.4 µg/mL (≈ 1.11 µM) and the MIC (Staphylococcus aureus [4]; [14]) was 0.4 µg/mL (≈ 1.11 µM).
With `COc1c(N2C[C@@H]3CCCN[C@@H]3C2)c(F)cc2c(=O)c(C(=O)O)cn(C3CC3)c12` [MOXIFLOXACIN] the EC50 (Streptococcus pneumoniae [3]) was greater than 100 mg/kg and the MIC [12] was 6.25 µg/mL.
With `CC1COc2c(N3CCN(C)CC3)c(F)cc3c(=O)c(C(=O)O)cn1c23` (configuration not stated) [OFLOXACIN] the MIC (Streptococcus pneumoniae [8]; [16]) was 0.4 µg/mL (≈ 1.11 µM) and the MIC (Staphylococcus aureus [4]; [14]) was 0.4 µg/mL (≈ 1.11 µM).

— ChEMBL document CHEMBL5143624, “WCK 1152, WCK 1153: Discovery and structure activity relationship for the treatment of resistant pneumococcal and staphylococcal respiratory infections” (Bioorg Med Chem Lett, 2022)
